Measurements: ChEMBL document CHEMBL1125116 (J Med Chem, 1990)

Experiments:
[1] = Maximum […] (Bmax) was determined.; type: ADME, organism-based; conditions: in vivo
[2] = molecular target: T1, D(2) dopamine receptor (Rattus norvegicus, UniProt P61169); assay: Evaluated in vitro for the affinity towards Dopamine receptor D2 of rat striatal tissue
[3] = molecular target: T1, D(2) dopamine receptor; assay: Competitive binding assay against Dopamine receptor D2 in rat striatal membranes and [125I]-IBF radioligand; type: cell membranes, Striatum, Membrane

T1 sequence (P61169 whole entry): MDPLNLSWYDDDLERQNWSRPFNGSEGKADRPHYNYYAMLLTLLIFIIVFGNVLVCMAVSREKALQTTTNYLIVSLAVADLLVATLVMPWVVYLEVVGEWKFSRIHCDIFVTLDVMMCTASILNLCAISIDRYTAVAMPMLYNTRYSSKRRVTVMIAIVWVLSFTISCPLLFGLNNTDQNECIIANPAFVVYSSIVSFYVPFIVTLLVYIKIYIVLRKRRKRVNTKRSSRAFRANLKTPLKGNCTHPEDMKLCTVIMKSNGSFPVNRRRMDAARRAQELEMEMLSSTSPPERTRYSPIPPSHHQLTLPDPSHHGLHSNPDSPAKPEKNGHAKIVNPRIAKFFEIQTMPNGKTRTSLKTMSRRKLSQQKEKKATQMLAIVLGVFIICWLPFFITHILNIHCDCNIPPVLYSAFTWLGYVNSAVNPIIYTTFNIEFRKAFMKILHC

| Structure (SMILES) | Bmax [1] [pM/g] | Kd [2] [nM] | Ki [3] [nM] |
| --- | --- | --- | --- |
| CN1CN(c2ccccc2)C2(CCN(CCCC(=O)c3ccc(F)cc3)CC2)C1=O [MESPIPERONE] | 16.6 | 0.097 |  |
| O=C(CCCN1CCC2(CC1)C(=O)NCN2c1ccccc1)c1ccc(F)cc1I |  | 0.25 |  |
| NC1CCc2cc(O)c(O)cc2C1 (racemic) |  |  | 65.7 |
| CCN1CCC[C@H]1CNC(=O)c1c(OC)ccc(I)c1O [IOLOPRIDE] |  | 0.43 |  |
